Assay results: patent US7022733B2, “Substituted 2-phenyl benzofurans as estrogenic agents” (Wyeth, priority 2001, dated 2006)

Experiments:
[1] = tested on: metallothionein-II mRNA in Saos-2 cells; assay: Regulation of metallothionein-II mRNA in Saos-2 cells; assay type: cell-based; details: Homo sapiens

Compound	fold induction at 1 µM [1]	melting point [°C]
Oc1ccc(-c2cc3cc(O)ccc3o2)c(-c2ccccc2)c1 [Example 103, 2-(5-Hydroxy-biphenyl-2-yl)-benzofuran-5-ol]	9	
OCc1ccc2oc(-c3ccc(O)cc3)cc2c1 [Example 144, 4-(5-Hydroxymethyl-benzofuran-2-yl)-phenol]		248 to 250
